According to patent US12109190B2, “Urolithins as immune response enhancers” (Amazentis SA, priority 2018, dated 2024):

Key:
[1] = system: haematopoietic stem cells (HSCs) and multipotent progenitor cells (MPPs); assay: Flow cytometry of bone marrow haematopoietic progenitor cell populations from aged mice fed Urolithin A; format: in vivo; settings: aged C57BL/6J mice, 50 mg/kg/day in diet, 34 weeks; for HSC population as % of total bone marrow cells and number of cells: FIG. 4, versus untreated aged animals, cell number p<0.05, 50 mg/kg/day
Experimental: To determine if Urolithin A treatment had any effects on stem cell populations, haematopoietic stem cells, (HSCs) and multipotent progenitor cells (MPPs) were isolated from aged C57BL/6J mice that received either a standard rodent diet or a diet containing Urolithin A mixed with food to reach a dosing of 50 mg/kg/day delivered to mice. Mice were treated with urolithin A starting at 16 months of age and received 34 weeks of treatment. At end of the treatment period mice were sacrificed and bone marrow collected from the femur and tibia bones. Single-cell suspensions were made following cell extraction from the bones after removal of muscle and connective tissue.
To determine the effects of Urolithin A treatment on the different progenitor cells of the haematopoietic system, the number and percentage of each progenitor cell type was determined using flow cytometry. Flow cytometry allowed the selection and quantification of cells with different patterns of protein expression on their cell surface. Using labeled monoclonal antibodies, it was possible to identify the different progenitor cell population based on their cell surface protein expression. To isolate the undifferentiated cells which would contain the progenitor population, bone marrow cells were stained with a cocktail of monoclonal antibodies against the cell surface proteins specific to the more differentiated cell types. The antibodies to these proteins, also known as lineage markers were CD3e (17A2), CD4 (GK1.5), CD8a (53.6.7), CD11b (M1/70), CD19 (1D3), Gr1 (RB6.8C5), Ter119 and NK1.1 (PK136), these were conjugated to Alexa 647 [Alexa Fluor 647 dye is a bright, far-red—fluorescent dye used as a label in, for example, fluorescence microscopy]. To discriminate the various lineage progenitor cell populations the isolated bone marrow cells were stained with monoclonal antibodies against the following progenitor cell surface protein markers containing the following labels CD34 (RAM 34)-FITC; CD135 (Flt3 A2F10)-PE; CD48 (HM48.1)-biotin+PE Texas Red Streptavidin; CD117 (ckit 2B8) PerCp-Cy5.5; Sca1 (D7)-PE-Cy7. Cell analysis of the stained cells was performed on a Becton Dickson Flow cytometer (Franklin Lake, NJ, USA) and collected data was analyzed using Flowjo™ software (an analysis platform for single-cell flow cytometry analysis). Bone marrow was isolated from three mice receiving Urolithin A treatment, and six control untreated mice.
To identify the different populations of haematopoietic progenitor cells present in the isolated bone marrow cells, the isolated bone marrow cells were selected based on their cell surface marker combinations. A so-called gating strategy was employed, in which a particular population of cells is selected (gated) based on the pattern of cell surface protein expression, and then this sub-selected population then is further examined for its cell surface protein expression. […] Uncommitted progenitor cells were examined by selecting cells that were negative for the cell surface proteins found on differentiated cells (lineage markers) described above (FIG. 2B). From this population of lineage negative cells, cells were selected that stained positive for the cells surface markers, CD117 (c-kit) and Sca1. This subpopulation of lineage negative, CD117 & Sca1 positive cells (LKS cells) contain the progenitor stem cells (FIG. 2C).
LKS cells can be further divided into four different progenitor cell types, HSC (LT-HSC), MPP 1 (ST-HSC), MPP2, and MPP3 or LMPP with decreasing levels of quiescence (FIG. 1B). The most quiescent and non-committed cells are the HSC cells. To differentiate between these cell populations in the LKS cells, Cells were examined for their expression of CD150 and CD48. The most primitive quiescent cell populations, HSC+MPP1, are positive for the cell surface marker for CD150 and negative for the cell surface marker CD48. […]

IL-10 / IL-12 (p40) = assay: Plasma cytokines (MILLIPLEX panel) in aged mice after Urolithin A in diet; format: in vivo; settings: 22 months old male C57BL/6J mice, 50 mg/kg/day in diet, 6 weeks; FIG. 6; p<0.05
Experimental: Urolithin A is admixed to AIN-93G Growing Rodent Diet (Research Diet, New Brunswick, NJ, USA) at a concentration of 0.5 g/per kg of diet, corresponding to a dose of 50 mg/kg/dy. Pellets with or without UA are given to 22 months old male C57BL/6J mice (Janvier, Saint Berthevin, France) for 6 weeks. A total of 32 mice are housed individually and randomized to 16 animals per group according to their exercise capacity. Animals who die spontaneously during the experiments are excluded from the calculations. These criteria were established before starting the experiments. Animals are euthanized after 6 weeks of treatment after an overnight fasting before collecting blood samples by the vena cava. Blood samples are centrifuged for 15 minutes at 1,500×g, and the plasma supernatant is transferred into a clean tube. Plasma is analyzed for cytokines using the MILLIPLEX MAP Mouse Cytokine/Chemokine Magnetic Bead Panel (MCYTOMAG-70K).
IL-10 is an important anti-inflammatory cytokine (Fiorentino D F, et al., IL-10 inhibits cytokine production by activated macrophages. J Immunol. 1991 Dec. 1; 147(11):3815-22; Fiorentino D F et al., IL-10 acts on the antigen-presenting cell to inhibit cytokine production by Th1 cells. J Immunol. 1991 May 15; 146(10):3444-51). […]

O=c1oc2cc(O)ccc2c2ccc(O)cc12 [Urolithin A]
HSC population as % of total bone marrow cells and number of cells [1]: increase | HSC population as % of total bone marrow cells and number of cells ([1]; listed as urolithin A): significant increase | LSK (c-Kit+, Lin-, Sca1+) progenitor cells as % of lineage negative cells ([1]; bone marrow, example plot FIG. 2C, control 3.16%): 5.27% | % of LSK cells that are HSC+MPP1 (CD150+, CD48-) ([1]; example animal FIG. 3, untreated 53.1%): 61.7% | % of HSC+MPP1 cells that are HSC (CD34-) ([1]; example animal FIG. 3, untreated 73.8%): 81.7% | HSC + MPP1, % of undifferentiated cells (LSK cells) ([1]; group value n=3, untreated 40.75 ± 7.42%, p < 0.01): 58.97 ± 11.30% | ratio of IL-10 over IL-12 (p40) in plasma (IL-10 / IL-12 (p40)): significant increase
